Measurements from patent publication US20170165254A1, “TREATING FLAVIVIRUS INFECTIONS WITH AMODIAQUINE AND DERIVATIVES THEREOF” (GEORGETOWN UNIVERSITY, priority 2014, published 2017).
Where two headings read alike, the source gives them in different places.

Experiments:
BHK-21 cells [1] = conditions: hamster
WNV replicon = assay: microbe, parasite or virus in culture; assay type: cell-based, West Nile virus (WNV); conditions: for inhibition at 50 µM: read-out: % Replicon Inhibition (Means ± SEM) WNV; for EC50: read-out: WNV replicon EC50
DENV2 replicon = assay: microbe, parasite or virus in culture; assay type: cell-based, Dengue Virus 2 (DENV2); conditions: for inhibition at 50 µM: DENV2, BHK-21, read-out: % Replicon Inhibition (Means ± SEM) DENV2
Vero cells [2] = conditions: African green monkey
in vitro [3] = conditions: African green monkey
in vitro [4] = conditions: hamster
Vero cells [5] = assay: Cytotoxicity assay, Vero cells; conditions: read-out: WNV replicon CC50; Table 2; unit inferred
DENV2 = assay: Inhibition of DENV2 infectivity in BHK-21 cells, plaque assay of supernatants; assay type: cell-based, Dengue Virus 2 (DENV2); conditions: read-out: EC90 for inhibition of DENV2 infectivity (plaque assay)
Protocol: BHK-21 cells were seeded into 12-well plates (10^5 cells/well) and incubated overnight at 37° C. Cells were infected with DENV2 at a multiplicity of infection (MOI) of 0.01 or 1 as indicated. After infection, cells were washed with PBS and incubated with 1.5 mL of MEM supplemented with 2% FBS, 100 I.U./mL penicillin/100 μg/mL streptomycin (referred to as maintenance medium). AQ, at indicated concentrations, was added and cells were incubated at 37° C. for various time points as indicated. DMSO (1%), as a no-compound control (100% infection), and mock-infected control using medium alone (0% infection) were included. Supernatants were collected from the time point experiments and the virus titers determined by plaque assay.
BHK-21 cells were seeded at ˜10^5 cells/well (12-well plate) or ˜5×10^4 cells/well (24-well plate) and then incubated at 37° C. until reaching 90% confluence. Cells were infected with the supernatants collected from experiments of AQ treatments. Cells were washed with PBS, and incubated with 1.5 mL of overlay medium (maintenance medium containing 1% methylcellulose). The plates were incubated for 3-4 days at 37° C. under 5% CO2. After plaques became visually apparent by microscopy, cells were fixed and stained with 11.1% formaldehyde, 4.75% isopropanol, and 1% crystal violet for 30 minutes. The number of plaque forming units (PFU) per mL was determined.
BHK-21 cells were seeded as described above. AQ, at indicated concentrations in 1% DMSO, was added to DENV2 (MOI of 0.01 or 1)-infected cells during adsorption and/or post-infection. Supernatants were collected at indicated time points post-infection for plaque assays.

BHK-21 cells [6] = assay: Cytotoxicity assay, BHK-21 cells; conditions: read-out: DENV replicon CC50; Table 2; unit inferred
[7] = Dengue virus, DENV2, BHK-21, read-out: DENV replicon EC50
[8] = 50 μM in 1% DMSO, Vero/WNV replicon cells

In the case of CC(CCCN(CCCl)CCCl)Nc1ccnc2cc(Cl)ccc12 (stereo not drawn) [chloroquine mustard], the CC50 (BHK-21 cells [1]) is reported as 30.5 ± 9.77 µM, the “% Replicon Inhibition (Means ± SEM) WNV” value (WNV replicon) is reported as 99.8 ± 0.03% and the inhibition at 50 µM (WNV replicon; West Nile virus, Vero) is reported as greater than 99%. For the same compound, the EC50 (WNV replicon; West Nile virus, Vero) was 2.95 ± 0.77 µM, the “% Replicon Inhibition (Means ± SEM) DENV2” value (DENV2 replicon) was 99.6 ± 0.32% and the inhibition at 50 µM (DENV2 replicon; Dengue virus) was greater than 99%. The EC50 (DENV2 replicon; [7]) was 2.9 ± 0.78 µM and the CC50 (Vero cells [2]) was 3.64 ± 0.93 µM.

For CC(CCc1ccc(N(CCCl)CCCl)cc1)Nc1ccnc2cc(Cl)ccc12 (stereo not drawn) [chloroquine ethyl phenyl mustard], the CC50 (in vitro [3]) was 5.02 ± 1.23 µM, the CC50 (in vitro [4]) was 74.1 ± 21.5 µM and the “% Replicon Inhibition (Means ± SEM) WNV” value (WNV replicon) was 99.5 ± 0.05%. For the same compound, the inhibition at 50 µM (WNV replicon; West Nile virus, Vero) was greater than 99%, the EC50 (WNV replicon; West Nile virus, Vero) was 1.55 ± 0.4 µM and the “% Replicon Inhibition (Means ± SEM) DENV2” value (DENV2 replicon) was 99.8 ± 0.03%. For the same compound, the inhibition at 50 µM (DENV2 replicon; Dengue virus) was greater than 99% and the EC50 (DENV2 replicon; [7]) was 3.6 ± 0.83 µM.

In the case of C/C=C1\CN2CC[C@H]1C[C@H]2[C@H](O)c1ccnc2ccc(O)cc12 [apoquinine], the “% Replicon Inhibition (Means ± SEM) WNV” value (WNV replicon; [8]) is reported as 33.7 ± 2.9% and the “% Replicon Inhibition (Means ± SEM) DENV2” value (DENV2 replicon) is reported as “— (key: —: “-” refers to no inhibition)”.

In the case of CC(CCCN(CCCl)CCCl)Nc1ccnc2cc(Cl)ccc12.O=C(O)c1cc2ccccc2c(Cc2c(O)c(C(=O)O)cc3ccccc23)c1O [chloroquine mustard pamoate], the “% Replicon Inhibition (Means ± SEM) WNV” value (WNV replicon) is reported as 10.35 ± 4.1% and the “% Replicon Inhibition (Means ± SEM) DENV2” value (DENV2 replicon) is reported as 47.5 ± 4.9%.

In the case of CCN(CC)Cc1cc(Nc2c(C)cnc3cc(Cl)ccc23)ccc1O [AQ derivative 1], the “% Replicon Inhibition (Means ± SEM) WNV” value (WNV replicon; [8]) is reported as 97.9 ± 0.5%, the EC50 (WNV replicon; Table 2, unit inferred) is reported as 14.8 ± 0.48 µM and the “inhibition of WNV replicon replication (in words)” value (WNV replicon; Vero/WNV replicon cells, FIG. 1B) is reported as “strong inhibition”. The “% Replicon Inhibition (Means ± SEM) DENV2” value (DENV2 replicon) was 89.9 ± 10.6%, the “inhibition of DENV2 replicon replication (in words)” value (DENV2 replicon) was “strong inhibition” and the EC50 (DENV2 replicon; read-out: DENV replicon EC50) was 21.1 ± 1.22 µM.

For Oc1ccc(Nc2ccnc3cc(Cl)ccc23)cc1 [AQ derivative 8], the CC50 (Vero cells [5]) was greater than 100 µM, the EC90 (DENV2; MOI of 1, supernatants at 72 hours, BHK-21 cells) was 31.2 ± 5.15 µM and the “% Replicon Inhibition (Means ± SEM) WNV” value (WNV replicon; [8]) was 57.2 ± 5.1%. The EC50 (WNV replicon; Table 2, unit inferred) was greater than 100 µM, the “% Replicon Inhibition (Means ± SEM) DENV2” value (DENV2 replicon) was 3.9 ± 0.3% and the “inhibition of DENV2 replicon replication (in words)” value (DENV2 replicon) was “failed to inhibit replicon replication”. For the same compound, the EC50 (DENV2 replicon; read-out: DENV replicon EC50) was greater than 100 µM, the EC50 (DENV2 replicon; read-out: EC50 values, BHK-21/DENV2 replicon cells) was roughly 100 µM and the CC50 (BHK-21 cells [6]) was greater than 100 µM.

In the case of CCN(CC)CCCC(C)Nc1ccnc2cc(Cl)ccc12 (stereo not drawn) [chloroquine (CQ), chloroquine], the EC90 (DENV2; Dengue virus, DENV2, BHK-21, 72 h) is reported as 5.04 ± 0.72 µM, the inhibition at 50 µM (WNV replicon; West Nile virus, Vero) is reported as 18.5 ± 2.8% and the “inhibition of DENV2 replicon replication (in words)” value (DENV2 replicon) is reported as “did not inhibit DENV2 replicon replication”. It also gave an inhibition at 50 µM (DENV2 replicon; Dengue virus) of 54.8 ± 4.5%.
